Columns and labels:
Assay type in all cases: in vivo
[1] = system: PC-3 human hormone-independent prostate cancer; experiment: PC-3 human prostate cancer xenografts in nude mice, Experiment 4; settings: 10 μg/day s.c.
Description: (§1) Male nude mice were implanted s.c. with 3 mm^3 pieces of PC-3 human hormone-independent prostate cancer tissue on both flanks. When tumors reached a volume of approximately 50 mm^3, the mice were divided into 12 experimental groups with 8 to 10 animals in each group and received single daily injections for 28 days as follows: 1. Control (vehicle solution); 2. JMR-132 (10 μg/day s.c.); 3. Peptide 11113 (2 μg/day s.c.); 4. Peptide 11119 (2 μg/day s.c.); 5. Peptide 11209 (2 μg/day s.c.); 6. Peptide 11313 (2 μg/day s.c.); 7. Peptide 11408 (2 μg/day s.c.); 8. Peptide 11435 (2 μg/day s.c.); 9. Peptide 11457 (2 μg/day s.c.); 10. Peptide 11459 (2 μg/day s.c.); 11. Peptide 11469 (2 μg/day s.c.); 12. Peptide 11491 (2 μg/day s.c.).
(§2) Tumor volumes were measured once a week. The experiment was ended on day 28 by sacrificing the mice under Isoflurane anesthesia. Resulting tumors were cleaned, weighed, and snap-frozen until further analyses. Statistical analyses of the measurement results were done by two-tailed t-test, p<0.05 being considered significant.
All experimental details of Experiment 4 are the same as for Experiment 3, with the following difference. When tumors reached a volume of approximately 50 mm^3, the mice were divided into 11 experimental groups with 8 to 10 animals in each group and received single daily injections for 46 days as follows: 1. Control (vehicle solution); 2. JMR-132 (10 μg/day s.c.); 3. Peptide 11123 (2 μg/day s.c.); 4. Peptide 11125 (2 μg/day s.c.); 5. Peptide 11213 (2 μg/day s.c.); 6. Peptide 11433 (2 μg/day s.c.); 7. Peptide 11473 (2 μg/day s.c.); 8. Peptide 11485 (2 μg/day s.c.); 9. Peptide 11497 (2 μg/day s.c.); 10. Peptide 11499 (2 μg/day s.c.); 11. Peptide 11521 (2 μg/day s.c.). Tumor volumes were measured once a week. The experiment was ended on day 46 by sacrificing the mice under Isoflurane anesthesia. Resulting tumors were cleaned, weighed, and snap-frozen until further analyses. Statistical analyses of the measurement results were done by two-tailed t-test, p<0.05 being considered significant.

[2] = system: PC-3 human hormone-independent prostate cancer; experiment: PC-3 human prostate cancer xenografts in nude mice, Experiment 3; settings: 10 μg/day s.c., 28 days
Description: as §1, §2

[3] = system: PC-3 human hormone-independent prostate cancer; experiment: PC-3 human prostate cancer xenografts in nude mice, Experiment 2; settings: 10 μg/day s.c.
Description: (§3) Male nude mice were implanted s.c. with 3 mm^3 pieces of PC-3 human hormone-independent prostate cancer tissue on both flanks. When tumors reached a volume of approx. 50 mm^3, the mice were divided into 4 experimental groups with 8 to 10 animals in each group and received single daily injections for 35 days as follows: 1. Control (vehicle solution); 2. JMR-132 (10 μg/day s.c.); 3. Peptide 1109 (10 μg/day s.c.); 4. Peptide 11111 (10 μg/day s.c.); Tumor volumes were measured once a week. The experiment was ended on day 35 by sacrificing the mice under Isoflurane anesthesia. Resulting tumors were cleaned, weighed, and snap-frozen until further analyses. Statistical analyses of the measurement results were done by two-tailed t-test, p<0.05 being considered significant. Data are presented as the means±S.E.
Experiment 2 was similar to Experiment 1. Experiment 2 was started when PC-3 tumors had grown to approximately 50 mm^3 in volume. At this time, the animals were divided into 5 experimental groups with 8 animals in each group, and received single daily injections for 14 days as follows: 1. Control (vehicle solution); 2. JMR-132 (10 μg/day s.c.); 3. Peptide 1109 (5 μg/day s.c.); 4. Peptide 11109 (5 μg/day s.c.); 5. Peptide 11109 (2 μg/day s.c.). Further details of Experiment 2 are the same as for Experiment 1

[4] = system: SK-Hep-1 human hepatocellular cancer; experiment: SK-Hep-1 human hepatocellular cancer xenografts in nude mice; settings: 10 μg/day s.c.
Description: SK-Hep-1 cancers were transplanted s.c. into both flank areas of 66 female nude mice, and allowed to grow for 47 days before starting the treatment with GH-RH antagonists. The mice were randomly assigned into 4 experimental groups with 8 animals in each group and received single daily injections for 135 days as follows: 1. Control (vehicle solution); 2. JMR-132 (10 μg/day s.c.); 3. Peptide 1109 (5 μg/day s.c.); 4. Peptide 1109 (10 μg/day s.c.). Tumor volumes were measured once a week. The experiment was ended on day 135 by sacrificing the mice under Isoflurane anesthesia. Resulting tumors were cleaned, weighed, and snap-frozen until further analyses. Statistical analyses of the measurement results were done by two-tailed t-test, p<0.05 being considered significant. Data are presented as the means±S.E.

[5] = system: PC-3 human hormone-independent prostate cancer; experiment: PC-3 human prostate cancer xenografts in nude mice, Experiment 1; settings: 10 μg/day s.c., daily for 35 days; means±S.E.
Description: as §3

[6] = system: H-460 human non-small cell lung cancer; experiment: H-460 human non-SCLC xenografts in nude mice, Experiment 2; settings: 10 μg/day s.c.
Description: Male nude mice were implanted s.c. with 3 mm^3 pieces of H-460 human non-SCLC tumor tissue on both flanks. When tumors had grown to a mean volume of approximately 90 mm^3, the mice were randomly assigned into 12 experimental groups with 8 to 10 animals in each group and received single daily injections for 28 days as follows: 1. Control (vehicle solution); 2. JMR-132 (10 μg/day s.c.); 3. Peptide 11109 (5 μg/day s.c.); 4. Peptide 11113 (5 μg/day s.c.); 5. Peptide 11119 (5 μg/day s.c.); 6. Peptide 11209 (5 μg/day s.c.); 7. Peptide 11313 (5 μg/day s.c.); 8. Peptide 11408 (5 μg/day s.c.); 9. Peptide 11435 (5 μg/day s.c.); 10. Peptide 11459 (5 μg/day s.c.); 11. Peptide 11469 (5 μg/day s.c.); 12. Peptide 11491 (5 μg/day s.c.). Tumor volumes were measured once a week. The experiment was ended on day 28 by sacrificing the mice under Isoflurane anesthesia. Resulting tumors were cleaned, weighed, and snap-frozen until further analyses. Statistical analyses of the measurement results were done by two-tailed t-test, p<0.05 being considered significant. Data are presented as the means±S.E.

## [PhAc^0-Tyr^1, D-Arg^2, Cpa^6, Ala^8, Har^9, Tyr(Me)^10, His^11, Abu^15, His^20, Nle^27, D-Arg^28, Har^29]hGH-RH(1-29)NH2 [JMR-132, reference compound]
[1]
  Tumor growth after 28 days (%): 1004%
  Tumor growth after 46 days (%): 1848%
[1]; after 28 days
  Inhibition (%): 26.62%
[1]; after 46 days
  Inhibition (%): 44.52%
[2]
  Tumor growth inhibition after 4 weeks (%): 28.11%
[3]; 14 days
  Tumor growth after 2 weeks (%): 432%
[3]; tumor growth after 2 weeks
  Inhibition (%): 39.61%
[4]; 135 days
  Tumors with total regression: 2
[4]; 135 days, means±S.E.
  Tumor volume (mm^3) on day 135: 615 ± 372 mm^3
[4]; tumors removed at autopsy
  Tumor weights (mg): 1006 ± 569 (7) mg
[5]
  Tumor growth after 5 weeks (%): 2820 ± 498%
[6]; 28 days, means±S.E.
  Tumor growth after 4 weeks (%): 11537 ± 8215%
[6]; after 4 weeks, negative = stimulation
  Inhibition (%): (−46.14) %
